One data set concerns the target D2R (Homo sapiens, UniProt P14416). The data set can be described thus: Radioligand competition binding at human D2R ([3H]N-methylspiperone, HEK293 membranes). The arrangement: expressed in transfected cells; host or cells: HEK293. Conditions: for inhibition at 10 µM / inhibition percentage of the radioligand binding, D2R: test compound concentration of 10 μM; for inhibition at 10 µM: read-out: inhibition percentage of the radioligand binding, D2R; for Ki: HEK 293 cells expressing hD2R, read-out: Ki ± SEM, D2R; for inhibition percentage of the radioligand binding, D2R: 10 µM. The procedure:
(§1) The novel hybrid derivatives 3–11 were tested at hD2R, hD3R, or hD4R stably expressed in HEK293 cells by competition binding assays, using [^3H]N-methylspiperone as the radioligand, to evaluate their D2-like affinity and subtype selectivity, following the previously reported procedures.[41],[45],[46]
(§2) Binding at dopamine D2-like receptors was determined using previously described methods.[41],[45],[46] Membranes were prepared from HEK293 cells stably expressing human D2, D3, or D4, grown in a 50:50 mix of Dulbecco’s minimal essential medium (DMEM) and Ham’s F12 culture media, supplemented with 20 mM HEPES, 2 mM L-glutamine, 0.1 mM nonessential amino acids, 1× antibiotic/antimycotic, 10% heat-inactivated fetal bovine serum, and 200 μg/mL hygromycin (Life Technologies, Grand Island, NY) and kept in an incubator at 37 °C and 5% CO2. Upon reaching 80–90% confluency, the cells were harvested using premixed Earle’s Balanced Salt Solution (EBSS) with 5 μM EDTA (Life Technologies) and centrifuged at 3000 rpm for 10 min at 21 °C. The supernatant was removed, and the pellet was resuspended in 10 mL hypotonic lysis buffer (5 mM MgCl2, 5 mM Tris, pH 7.4 at 4 °C) and centrifuged at 20,000 rpm for 30 min at 4 °C. The pellet was then resuspended in fresh EBSS buffer made from 8.7 g/L Earle’s Balanced Salts without phenol red (US Biological, Salem, MA), 2.2 g/L sodium bicarbonate, pH to 7.4. A Bradford protein assay (Bio-Rad, Hercules, CA) was used to determine the protein concentration, and membranes were diluted to 500 μg/mL and stored at −80 °C for later use. Radioligand competition binding experiments were conducted using thawed membranes. Test compounds were freshly dissolved in 30% DMSO and 70% H2O to a stock concentration of 100 μM. To assist the solubilization of free-base compounds, 10 μL of glacial acetic acid was added along with DMSO. Each test compound was then diluted into 13 half-log serial dilutions using 30% DMSO vehicle; the final test concentrations ranged from 10 μM to 10 pM. The previously frozen membranes were diluted in fresh EBSS to a 100 μg/mL (for D2 or D3) or 200 μg/mL (D4) stock for binding. Radioligand competition experiments were conducted in glass tubes containing 300 μL of fresh EBSS buffer, 50 μL of diluted test compound, 100 μL of membranes (10 μg of total protein for D2 or D3 and 20 μg of total protein for D4), and 50 μL of [^3H]N-methylspiperone (0.4 nM final concentration; PerkinElmer). Nonspecific binding was determined using 10 μM butaclamol (Sigma-Aldrich, St. Louis, MO), and total binding was determined with the 30% DMSO vehicle. All compound dilutions were tested in triplicate and the reaction was incubated for 1 h at room temperature. The reaction was terminated by filtration through Whatman GF/B filters, presoaked for 1 h in 0.5% polyethylenimine, using a Brandel R48 filtering manifold (Brandel Instruments, Gaithersburg, MD). The filters were washed three times with 3 mL of ice-cold EBSS buffer and transferred to scintillation vials. CytoScint liquid scintillation cocktail (3 mL, MP Biomedicals, Solon, OH) was added, and vials were counted using a PerkinElmer Tri-Carb 2910 TR liquid scintillation counter (Waltham, MA).

A further data set addresses T1, D4R (Homo sapiens, UniProt P21917).
T1 sequence (P21917 1-419): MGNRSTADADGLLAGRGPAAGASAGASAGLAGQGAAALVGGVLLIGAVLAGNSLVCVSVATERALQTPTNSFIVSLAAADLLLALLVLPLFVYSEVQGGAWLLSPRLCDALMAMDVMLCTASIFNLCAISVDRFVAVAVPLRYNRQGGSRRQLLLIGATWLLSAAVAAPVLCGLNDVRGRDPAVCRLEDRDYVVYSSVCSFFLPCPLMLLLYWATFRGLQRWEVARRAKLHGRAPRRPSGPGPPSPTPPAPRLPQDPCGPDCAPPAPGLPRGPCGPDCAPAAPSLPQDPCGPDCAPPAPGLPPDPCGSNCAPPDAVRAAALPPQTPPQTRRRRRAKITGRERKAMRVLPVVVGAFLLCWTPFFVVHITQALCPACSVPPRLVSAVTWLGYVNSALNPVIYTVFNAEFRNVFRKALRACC
The data set can be described thus: Radioligand competition binding at human D4R ([3H]N-methylspiperone, HEK293 membranes). More on the design: expressed in transfected cells; host or cells: HEK293. The settings on record: for inhibition at 10 µM / inhibition percentage of the radioligand binding, D4R: test compound concentration of 10 μM; for inhibition at 10 µM: read-out: inhibition percentage of the radioligand binding, D4R; for Ki: HEK 293 cells expressing hD4R, read-out: Ki ± SEM, D4R; for inhibition percentage of the radioligand binding, D4R: 10 µM. The procedure:
as §1, §2
(Displacement assays read how much labelled ligand stays bound in the presence of the test substance.)

Another data set addresses D3R (Homo sapiens, UniProt P35462). Description: Radioligand competition binding at human D3R ([3H]N-methylspiperone, HEK293 membranes). The arrangement: expressed in transfected cells; host or cells: HEK293. Conditions: for Ki: HEK 293 cells expressing hD3R, read-out: Ki ± SEM, D3R; for D2/D3: ratio of Ki values D2R/D3R; for D4/D3: ratio of Ki values D4R/D3R. As for the experimental part: as §1, §2

Structures can show the parent of a compound that is named as a salt. Marks after values point to notes of the source that are not given here.

Sequence of D2R (P14416 whole entry): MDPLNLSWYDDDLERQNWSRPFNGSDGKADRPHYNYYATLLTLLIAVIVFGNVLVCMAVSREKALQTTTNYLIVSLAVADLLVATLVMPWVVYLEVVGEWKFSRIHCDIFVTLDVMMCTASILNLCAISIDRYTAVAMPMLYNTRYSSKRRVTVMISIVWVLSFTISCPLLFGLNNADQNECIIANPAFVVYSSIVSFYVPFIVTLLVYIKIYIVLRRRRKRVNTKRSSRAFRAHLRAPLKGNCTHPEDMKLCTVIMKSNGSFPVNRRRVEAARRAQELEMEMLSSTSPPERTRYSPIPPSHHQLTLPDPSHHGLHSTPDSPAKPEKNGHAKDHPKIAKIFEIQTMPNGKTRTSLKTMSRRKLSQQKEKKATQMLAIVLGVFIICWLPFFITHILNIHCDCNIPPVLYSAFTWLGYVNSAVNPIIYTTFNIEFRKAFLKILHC
Sequence of D3R (P35462 whole entry): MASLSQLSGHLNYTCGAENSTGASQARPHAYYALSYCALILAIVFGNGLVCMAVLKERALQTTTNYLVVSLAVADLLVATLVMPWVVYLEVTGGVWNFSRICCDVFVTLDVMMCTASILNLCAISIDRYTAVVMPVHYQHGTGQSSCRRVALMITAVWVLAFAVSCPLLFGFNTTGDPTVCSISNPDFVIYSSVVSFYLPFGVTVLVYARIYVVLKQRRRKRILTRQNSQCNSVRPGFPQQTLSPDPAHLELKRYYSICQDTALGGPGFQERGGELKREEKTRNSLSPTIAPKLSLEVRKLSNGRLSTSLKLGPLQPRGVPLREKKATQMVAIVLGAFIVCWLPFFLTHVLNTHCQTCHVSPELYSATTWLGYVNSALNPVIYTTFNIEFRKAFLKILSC

As usually defined, the inhibition is the share of the control response that was lost under treatment. Usually Ki stands for the equilibrium dissociation constant of an inhibitor or competing ligand from its target. In the case of `O=C(NCCC(F)CN1CCN(c2cccc(Cl)c2Cl)CC1)C1COCC(c2ccccc2)(c2ccccc2)O1` (centres unmarked) [compound 5, N-(4-(4-(2,3-Dichlorophenyl)piperazin-1-yl)-3-fluorobutyl)-6,6-diphenyl-1,4-dioxane-2-carboxamide], the values for the inhibition at 10 µM on D2R and at D4R were 21.2% and 19.1%, respectively. In addition, at D3R ([3H]N-methylspiperone), the Ki was 716 ± 178 nM.

The term melting point denotes the temperature of the solid-liquid transition. The compound `O=C(NCCCCN1CCN(c2cccc(Cl)c2Cl)CC1)C1COC(c2ccccc2)(c2ccccc2)CO1` (centres unmarked) (as salt: oxalate) [compound 6, N-(4-(4-(2,3-Dichlorophenyl)piperazin-1-yl)butyl)-5,5-diphenyl-1,4-dioxane-2-carboxamide] showed a melting point of 94 to 95 °C.

Turning to `O=C(NCCC(O)CN1CCN(c2cccc(Cl)c2Cl)CC1)C1COC(c2ccccc2)(c2ccccc2)CO1` (centres unmarked) [compound 7, N-(4-(4-(2,3-Dichlorophenyl)piperazin-1-yl)-3-hydroxybutyl)-5,5-diphenyl-1,4-dioxane-2 Carboxamide], the figures for the Ki on D2R, on D4R and at D3R ([3H]N-methylspiperone) were 526 ± 28.2 nM, 390 ± 46 nM and 23.4 ± 3.1 nM, respectively. Moreover, the D2/D3 on D3R is on record as 23. For the same compound, the D4/D3 at D3R turned out to be 17.

For the compound `O=C(NCCC(O)CN1CCN(c2cccc(Cl)c2Cl)CC1)C1COCC(c2ccccc2)(c2ccccc2)O1` (centres unmarked) [4b, N-(4-(4-(2,3-Dichlorophenyl)piperazin-1-yl)-3-hydroxybutyl)-6,6-diphenyl-1,4-dioxane-2-carboxamide], the “inhibition percentage of the radioligand binding, D2R” value at D2R turned out to be 41% ^c. The “inhibition percentage of the radioligand binding, D4R” value at D4R is on record as 54.4% ^c. Also, the inhibitory constant (Ki) on D3R ([3H]N-methylspiperone) came out at 77.1 ± 25.5 nM.

On to `O=C(NCCC(O)CN1CCN(c2cccc(Cl)c2Cl)CC1)C1COC(c2ccccc2)(c2ccccc2)CO1` (centres unmarked) (as salt: oxalate) [compound 7, N-(4-(4-(2,3-Dichlorophenyl)piperazin-1-yl)-3-hydroxybutyl)-5,5-diphenyl-1,4-dioxane-2 Carboxamide], for which the melting point lay in the range of 132 to 133 °C.

The compound `O=C(NCCCCN1CCN(c2cccc(Cl)c2Cl)CC1)C1COc2ccccc2O1` (centres unmarked) (as salt: oxalate) [compound 9, N-(4-(4-(2,3-Dichlorophenyl)piperazin-1-yl)butyl)-2,3-dihydrobenzo[b][1,4]dioxine-2-carboxamide] showed a melting point of 167 to 168 °C.

The compound `O=C(NCCC(O)CN1CCN(c2cccc(Cl)c2Cl)CC1)C1COCC(c2ccccc2)(c2ccccc2)O1` (single isomer, unassigned) (as salt: oxalate) [4a, N-(4-(4-(2,3-Dichlorophenyl)piperazin-1-yl)-3-hydroxybutyl)-6,6-diphenyl-1,4-dioxane-2-carboxamide] gave a melting point of 146 to 147 °C.

`O=C(NCCC(O)CN1CCN(c2cccc(Cl)c2Cl)CC1)C1COc2ccccc2O1` (single isomer, unassigned) (as salt: oxalate) [10a, N-(4-(4-(2,3-Dichlorophenyl)piperazin-1-yl)-3-hydroxybutyl)-2,3-dihydrobenzo[b][1,4]dioxine-2-carboxamide] returned a melting point of 88 to 89 °C.

Compound `O=C(NCCC(F)CN1CCN(c2cccc(Cl)c2Cl)CC1)C1COCC(c2ccccc2)(c2ccccc2)O1` (centres unmarked) (as salt: oxalate) [compound 5, N-(4-(4-(2,3-Dichlorophenyl)piperazin-1-yl)-3-fluorobutyl)-6,6-diphenyl-1,4-dioxane-2-carboxamide] showed a melting point of 100 to 101 °C.

Turning to `O=C(NCCC(F)CN1CCN(c2cccc(Cl)c2Cl)CC1)C1COc2ccccc2O1` (centres unmarked) [11b, N-(4-(4-(2,3-Dichlorophenyl)piperazin-1-yl)-3-fluorobutyl)-2,3-dihydrobenzo[b][1,4]dioxine-2-carboxamide], the “inhibition percentage of the radioligand binding, D2R” value on D2R came out at 8.7% ^c. Moreover, at D4R, the “inhibition percentage of the radioligand binding, D4R” value stood at 26.6% ^c. The “inhibition percentage of the radioligand binding, D3R” value on D3R (test compound concentration of 10 μM, [3H]N-methylspiperone, 10 µM) was found to be 65.4% ^c.

`O=C(NCCC(F)CN1CCN(c2cccc(Cl)c2Cl)CC1)C1COc2ccccc2O1` (centres unmarked) (as salt: oxalate) [11a, N-(4-(4-(2,3-Dichlorophenyl)piperazin-1-yl)-3-fluorobutyl)-2,3-dihydrobenzo[b][1,4]dioxine-2-carboxamide] showed a melting point of 200 to 201 °C.

On to `O=C(NCCC(F)CN1CCN(c2cccc(Cl)c2Cl)CC1)C1COC(c2ccccc2)(c2ccccc2)CO1` (centres unmarked) [compound 8, N-(4-(4-(2,3-Dichlorophenyl)piperazin-1-yl)-3-fluorobutyl)-5,5-diphenyl-1,4-dioxane-2-carboxamide], for which the inhibition constant Ki at D2R is 1200 ± 210 nM; on D3R ([3H]N-methylspiperone), 295 ± 100 nM. Moreover, the inhibition at 10 µM at D4R stood at 43.6%. In addition, at D3R, the D2/D3 amounted to 4.

Take `O=C(NCCC(O)CN1CCN(c2cccc(Cl)c2Cl)CC1)C1COc2ccccc2O1` (centres unmarked) [10b, N-(4-(4-(2,3-Dichlorophenyl)piperazin-1-yl)-3-hydroxybutyl)-2,3-dihydrobenzo[b][1,4]dioxine-2-carboxamide]: the inhibition constant (Ki) is 783 ± 19 nM on D2R, 244 ± 54 nM at D4R and 23.4 ± 2.4 nM at D3R ([3H]N-methylspiperone). In addition, at D3R, the D4/D3 is listed as 10.

`O=C(NCCCCN1CCN(c2cccc(Cl)c2Cl)CC1)C1COCC(c2ccccc2)(c2ccccc2)O1` (centres unmarked) (as salt: oxalate) [compound 3, N-(4-(4-(2,3-Dichlorophenyl)piperazin-1-yl)butyl)-6,6-diphenyl-1,4-dioxane-2-carboxamide] yielded a melting point of 107 to 108 °C.

Turning to `O=C(NCCC(O)CN1CCN(c2cccc(Cl)c2Cl)CC1)C1COc2ccccc2O1` (centres unmarked) [10a, N-(4-(4-(2,3-Dichlorophenyl)piperazin-1-yl)-3-hydroxybutyl)-2,3-dihydrobenzo[b][1,4]dioxine-2-carboxamide], the Ki was found to be 1100 ± 125 nM on D2R, 282 ± 76 nM on D4R and 44.1 ± 8.2 nM at D3R ([3H]N-methylspiperone). In addition, the D2/D3 at D3R came to 25. Also, the D4/D3 on D3R worked out at 6.

As for `O=C(NCCC(F)CN1CCN(c2cccc(Cl)c2Cl)CC1)C1COc2ccccc2O1` (centres unmarked) [11a, N-(4-(4-(2,3-Dichlorophenyl)piperazin-1-yl)-3-fluorobutyl)-2,3-dihydrobenzo[b][1,4]dioxine-2-carboxamide], the inhibition at 10 µM was determined as 10.6% at D2R; 29.4% at D4R; 54.8% on D3R (test compound concentration of 10 μM, [3H]N-methylspiperone, read-out: inhibition percentage of the radioligand binding, D3R).

For `O=C(NCCC(O)CN1CCN(c2cccc(Cl)c2Cl)CC1)C1COCC(c2ccccc2)(c2ccccc2)O1` (centres unmarked) [4a, N-(4-(4-(2,3-Dichlorophenyl)piperazin-1-yl)-3-hydroxybutyl)-6,6-diphenyl-1,4-dioxane-2-carboxamide], the figures for the inhibition at 10 µM at D2R and at D4R were 39.5% and 39.2%, respectively. Moreover, the inhibition constant Ki on D3R ([3H]N-methylspiperone) turned out to be 164 ± 52 nM.
